According to the NIST ThermoML archive (doi:10.1021/je101130e):
± gives the expanded uncertainty stated by the source.

Legend:
[1] = cn = amount concentration of the nth substance listed, in mol/dm3; details: 101 kPa, Liquid, Alternating current cell with electrodes
[2] = mn = molality of the nth substance listed, in mol/kg; details: 298.15 K, 101 kPa, Liquid, Vibrating tube method

CCOS(=O)(=O)[O-].CCn1cc[n+](C)c1 [1-ethyl-3-methylimidazolium ethyl sulfate] + O
molar conductivity [S·m2/mol], [1]
Details | c1 = 0.6368 | c1 = 1.07 | c1 = 1.527 | c1 = 1.991 | c1 = 2.48 | c1 = 3.114 | c1 = 3.767 | c1 = 4.385 | c1 = 5.086
278.15 K | 0.00496 ± 5e-06 | 0.0049391 ± 4.9e-06 | 0.0049163 ± 4.9e-06 | 0.004892 ± 4.9e-06 | 0.004877 ± 4.9e-06 | 0.0048486 ± 4.8e-06 | 0.0048261 ± 4.8e-06 | 0.00479 ± 4.8e-06 | 0.004783 ± 4.8e-06
283.15 K | 0.0057155 ± 5.7e-06 | 0.00569 ± 5.7e-06 | 0.005664 ± 5.7e-06 | 0.0056374 ± 5.6e-06 | 0.0056159 ± 5.6e-06 | 0.005585 ± 5.6e-06 | 0.005559 ± 5.6e-06 | 0.0055336 ± 5.5e-06 | 0.0055088 ± 5.5e-06
288.15 K | 0.0065118 ± 6.5e-06 | 0.00648 ± 6.5e-06 | 0.0064496 ± 6.4e-06 | 0.0064206 ± 6.4e-06 | 0.006395 ± 6.4e-06 | 0.00636 ± 6.4e-06 | 0.0063311 ± 6.3e-06 | 0.0063021 ± 6.3e-06 | 0.006274 ± 6.3e-06
293.15 K | 0.0073408 ± 7.3e-06 | 0.0073039 ± 7.3e-06 | 0.007271 ± 7.3e-06 | 0.0072366 ± 7.2e-06 | 0.0072073 ± 7.2e-06 | 0.007169 ± 7.2e-06 | 0.007135 ± 7.1e-06 | 0.0071023 ± 7.1e-06 | 0.007071 ± 7.1e-06
298.15 K | 0.0082055 ± 8.2e-06 | 0.008163 ± 8.2e-06 | 0.008125 ± 8.1e-06 | 0.008088 ± 8.1e-06 | 0.008054 ± 8.1e-06 | 0.0080112 ± 8e-06 | 0.007974 ± 8e-06 | 0.0079372 ± 7.9e-06 | 0.0079028 ± 7.9e-06
303.15 K | 0.009098 ± 9.1e-06 | 0.009052 ± 9.1e-06 | 0.0090088 ± 9e-06 | 0.008967 ± 9e-06 | 0.00893 ± 8.9e-06 | 0.008882 ± 8.9e-06 | 0.0088395 ± 8.8e-06 | 0.008799 ± 8.8e-06 | 0.008761 ± 8.8e-06
308.15 K | 0.010022 ± 1e-05 | 0.00997 ± 1e-05 | 0.0099213 ± 9.9e-06 | 0.009875 ± 9.9e-06 | 0.0098348 ± 9.8e-06 | 0.009782 ± 9.8e-06 | 0.0097357 ± 9.7e-06 | 0.009689 ± 9.7e-06 | 0.0096453 ± 9.6e-06
313.15 K | 0.01096 ± 1.1e-05 | 0.01092 ± 1.1e-05 | 0.01086 ± 1.1e-05 | 0.01081 ± 1.1e-05 | 0.01076 ± 1.1e-05 | 0.01071 ± 1.1e-05 | 0.01066 ± 1.1e-05 | 0.01061 ± 1.1e-05 | 0.01056 ± 1.1e-05

[2]
Details | mass density [kg/m3]
m1 = 0.005086 | 997.281 ± 10
m1 = 0.06934 | 1000.11 ± 10

CCOS(=O)(=O)[O-].CCn1cc[n+](C)c1 [1-ethyl-3-methylimidazolium ethyl sulfate] + CC#N
molar conductivity [S·m2/mol], [1]
Details | 273.15 K | 278.15 K | 283.15 K | 288.15 K | 293.15 K | 298.15 K | 303.15 K | 308.15 K | 313.15 K
c1 = 0.3706 | 0.01282 ± 1.3e-05 | 0.01356 ± 1.4e-05 | 0.014309 ± 1.4e-05 | 0.015072 ± 1.5e-05 | 0.01584 ± 1.6e-05 | 0.01663 ± 1.7e-05 | 0.017423 ± 1.7e-05 | 0.018226 ± 1.8e-05 | 0.019045 ± 1.9e-05
c1 = 0.7493 | 0.01255 ± 1.3e-05 | 0.01327 ± 1.3e-05 | 0.014004 ± 1.4e-05 | 0.01475 ± 1.5e-05 | 0.0155 ± 1.6e-05 | 0.016262 ± 1.6e-05 | 0.01704 ± 1.7e-05 | 0.01782 ± 1.8e-05 | 0.01862 ± 1.9e-05
c1 = 1.176 | 0.012313 ± 1.2e-05 | 0.013021 ± 1.3e-05 | 0.01374 ± 1.4e-05 | 0.01447 ± 1.5e-05 | 0.015211 ± 1.5e-05 | 0.01596 ± 1.6e-05 | 0.01672 ± 1.7e-05 | 0.017492 ± 1.7e-05 | 0.018273 ± 1.8e-05
c1 = 1.698 | 0.012085 ± 1.2e-05 | 0.01278 ± 1.3e-05 | 0.013489 ± 1.3e-05 | 0.014207 ± 1.4e-05 | 0.01493 ± 1.5e-05 | 0.01567 ± 1.6e-05 | 0.016414 ± 1.6e-05 | 0.017171 ± 1.7e-05 | 0.01794 ± 1.8e-05
c1 = 2.185 | 0.01189 ± 1.2e-05 | 0.01258 ± 1.3e-05 | 0.013276 ± 1.3e-05 | 0.01398 ± 1.4e-05 | 0.0147 ± 1.5e-05 | 0.01542 ± 1.5e-05 | 0.016154 ± 1.6e-05 | 0.0169 ± 1.7e-05 | 0.01765 ± 1.8e-05
c1 = 2.695 | 0.01172 ± 1.2e-05 | 0.012392 ± 1.2e-05 | 0.013078 ± 1.3e-05 | 0.01377 ± 1.4e-05 | 0.01448 ± 1.5e-05 | 0.01519 ± 1.5e-05 | 0.01591 ± 1.6e-05 | 0.01664 ± 1.7e-05 | 0.017386 ± 1.7e-05
c1 = 3.269 | 0.01154 ± 1.2e-05 | 0.012206 ± 1.2e-05 | 0.01288 ± 1.3e-05 | 0.01357 ± 1.4e-05 | 0.014261 ± 1.4e-05 | 0.01496 ± 1.5e-05 | 0.01567 ± 1.6e-05 | 0.016396 ± 1.6e-05 | 0.017125 ± 1.7e-05
c1 = 3.882 | 0.011371 ± 1.1e-05 | 0.012029 ± 1.2e-05 | 0.0127 ± 1.3e-05 | 0.01337 ± 1.3e-05 | 0.014054 ± 1.4e-05 | 0.01475 ± 1.5e-05 | 0.015446 ± 1.5e-05 | 0.016155 ± 1.6e-05 | 0.01687 ± 1.7e-05
c1 = 4.671 | 0.01117 ± 1.1e-05 | 0.01182 ± 1.2e-05 | 0.01247 ± 1.3e-05 | 0.013136 ± 1.3e-05 | 0.01381 ± 1.4e-05 | 0.01449 ± 1.5e-05 | 0.015177 ± 1.5e-05 | 0.01588 ± 1.6e-05 | 0.01658 ± 1.7e-05
c1 = 5.374 | 0.011016 ± 1.1e-05 | 0.01165 ± 1.2e-05 | 0.0123 ± 1.2e-05 | 0.01295 ± 1.3e-05 | 0.01362 ± 1.4e-05 | 0.014287 ± 1.4e-05 | 0.01497 ± 1.5e-05 | 0.01566 ± 1.6e-05 | 0.01635 ± 1.6e-05
c1 = 5.987 | 0.01089 ± 1.1e-05 | 0.01152 ± 1.2e-05 | 0.012165 ± 1.2e-05 | 0.01281 ± 1.3e-05 | 0.01347 ± 1.3e-05 | 0.014134 ± 1.4e-05 | 0.0148 ± 1.5e-05 | 0.01549 ± 1.6e-05 | 0.016173 ± 1.6e-05
c1 = 6.546 | 0.01079 ± 1.1e-05 | 0.011417 ± 1.1e-05 | 0.012051 ± 1.2e-05 | 0.01269 ± 1.3e-05 | 0.013343 ± 1.3e-05 | 0.014 ± 1.4e-05 | 0.01467 ± 1.5e-05 | 0.015338 ± 1.5e-05 | 0.016021 ± 1.6e-05

[2]
Details | mass density [kg/m3]
m1 = 0.006546 | 777.183 ± 10
m1 = 0.1445 | 788.755 ± 10

CCOS(=O)(=O)[O-].CCn1cc[n+](C)c1 [1-ethyl-3-methylimidazolium ethyl sulfate] + ClCCl
molar conductivity [S·m2/mol], [1]
Details | 273.15 K | 278.15 K | 283.15 K | 288.15 K | 293.15 K | 298.15 K | 303.15 K | 308.15 K
c1 = 0.5399 | 0.0004064 ± 4e-07 | 0.0004194 ± 4e-07 | 0.0004324 ± 4e-07 | 0.0004454 ± 4e-07 | 0.0004554 ± 5e-07 | 0.000462 ± 5e-07 | 0.000471 ± 5e-07 | 0.0004771 ± 5e-07
c1 = 0.8656 | 0.0003364 ± 3e-07 | 0.0003471 ± 4e-07 | 0.0003579 ± 4e-07 | 0.0003684 ± 4e-07 | 0.0003768 ± 4e-07 | 0.0003829 ± 4e-07 | 0.0003904 ± 4e-07 | 0.0003958 ± 4e-07
c1 = 1.152 | 0.0003033 ± 3e-07 | 0.0003131 ± 3e-07 | 0.0003228 ± 3e-07 | 0.0003322 ± 3e-07 | 0.0003398 ± 3e-07 | 0.0003455 ± 3e-07 | 0.0003521 ± 4e-07 | 0.0003571 ± 4e-07
c1 = 1.504 | 0.0002764 ± 3e-07 | 0.0002855 ± 3e-07 | 0.0002943 ± 3e-07 | 0.0003028 ± 3e-07 | 0.0003098 ± 3e-07 | 0.0003152 ± 3e-07 | 0.0003212 ± 3e-07 | 0.0003258 ± 3e-07
c1 = 1.808 | 0.0002603 ± 3e-07 | 0.0002689 ± 3e-07 | 0.0002772 ± 3e-07 | 0.0002852 ± 3e-07 | 0.0002918 ± 3e-07 | 0.0002971 ± 3e-07 | 0.0003029 ± 3e-07 | 0.0003073 ± 3e-07
c1 = 2.099 | 0.0002493 ± 3e-07 | 0.0002575 ± 3e-07 | 0.0002653 ± 3e-07 | 0.000273 ± 3e-07 | 0.0002794 ± 3e-07 | 0.0002845 ± 3e-07 | 0.00029 ± 3e-07 | 0.0002942 ± 3e-07
c1 = 2.376 | 0.0002409 ± 2e-07 | 0.0002489 ± 3e-07 | 0.0002566 ± 3e-07 | 0.000264 ± 3e-07 | 0.0002702 ± 3e-07 | 0.0002753 ± 3e-07 | 0.0002806 ± 3e-07 | 0.0002849 ± 3e-07
c1 = 2.723 | 0.0002334 ± 2e-07 | 0.0002412 ± 2e-07 | 0.0002486 ± 3e-07 | 0.0002557 ± 3e-07 | 0.0002618 ± 3e-07 | 0.0002668 ± 3e-07 | 0.000272 ± 3e-07 | 0.0002762 ± 3e-07
c1 = 3.074 | 0.0002276 ± 2e-07 | 0.0002352 ± 2e-07 | 0.0002425 ± 2e-07 | 0.0002494 ± 3e-07 | 0.0002554 ± 3e-07 | 0.0002604 ± 3e-07 | 0.0002655 ± 3e-07 | 0.0002698 ± 3e-07
c1 = 3.333 | 0.000224 ± 2e-07 | 0.0002315 ± 2e-07 | 0.0002387 ± 2e-07 | 0.0002455 ± 3e-07 | 0.0002514 ± 3e-07 | 0.0002564 ± 3e-07 | 0.0002615 ± 3e-07 | 0.0002657 ± 3e-07
c1 = 3.607 | 0.0002213 ± 2e-07 | 0.0002288 ± 2e-07 | 0.0002359 ± 2e-07 | 0.0002427 ± 2e-07 | 0.0002488 ± 3e-07 | 0.0002538 ± 3e-07 | 0.0002588 ± 3e-07 | 0.000263 ± 3e-07
c1 = 3.931 | 0.000219 ± 2e-07 | 0.0002264 ± 2e-07 | 0.0002334 ± 2e-07 | 0.0002401 ± 2e-07 | 0.0002459 ± 3e-07 | 0.000251 ± 3e-07 | 0.000256 ± 3e-07 | 0.0002601 ± 3e-07
